Values of other authors in patent publication US11549142B2, “CETP inhibitors for therapeutic use” (Hoffmann-La Roche Inc., priority 2013, dated 2023).
Like-named read-outs stand apart in the source and are kept apart here.

Experiments:
[1] = humans; de Grooth et al.; cited from earlier work
CETP [2] = biological target: T1, CETP (Oryctolagus cuniculus, UniProt P22687); details: rabbits; Shinkai et al., Kobayashi et al., Okamoto et al.; cited from earlier work
T1 construct: host or cells: rabbits (endogenous plasma CETP)
T1 sequence (P22687 2-497): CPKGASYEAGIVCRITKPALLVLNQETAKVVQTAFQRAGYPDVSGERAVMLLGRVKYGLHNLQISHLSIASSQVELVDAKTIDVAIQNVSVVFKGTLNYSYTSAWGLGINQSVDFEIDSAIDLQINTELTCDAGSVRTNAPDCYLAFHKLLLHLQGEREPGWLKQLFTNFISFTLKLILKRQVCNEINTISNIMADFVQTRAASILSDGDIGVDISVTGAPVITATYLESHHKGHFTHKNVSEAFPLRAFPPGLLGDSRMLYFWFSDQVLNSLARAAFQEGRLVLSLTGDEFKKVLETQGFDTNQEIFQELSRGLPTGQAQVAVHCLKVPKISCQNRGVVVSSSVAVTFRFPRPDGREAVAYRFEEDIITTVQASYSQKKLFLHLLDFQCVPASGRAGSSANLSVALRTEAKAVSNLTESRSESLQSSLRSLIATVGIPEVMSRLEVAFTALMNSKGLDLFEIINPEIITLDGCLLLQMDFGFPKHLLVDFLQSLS

[3] = rabbits, Okamoto et al., cited from earlier work
CETP [4] = biological target: T2, CETP (Homo sapiens, UniProt P11597); details: humans; de Grooth et al.; cited from earlier work
T2 construct: host or cells: humans treated with the compound (endogenous plasma CETP)
T2 sequence (P11597 18-493): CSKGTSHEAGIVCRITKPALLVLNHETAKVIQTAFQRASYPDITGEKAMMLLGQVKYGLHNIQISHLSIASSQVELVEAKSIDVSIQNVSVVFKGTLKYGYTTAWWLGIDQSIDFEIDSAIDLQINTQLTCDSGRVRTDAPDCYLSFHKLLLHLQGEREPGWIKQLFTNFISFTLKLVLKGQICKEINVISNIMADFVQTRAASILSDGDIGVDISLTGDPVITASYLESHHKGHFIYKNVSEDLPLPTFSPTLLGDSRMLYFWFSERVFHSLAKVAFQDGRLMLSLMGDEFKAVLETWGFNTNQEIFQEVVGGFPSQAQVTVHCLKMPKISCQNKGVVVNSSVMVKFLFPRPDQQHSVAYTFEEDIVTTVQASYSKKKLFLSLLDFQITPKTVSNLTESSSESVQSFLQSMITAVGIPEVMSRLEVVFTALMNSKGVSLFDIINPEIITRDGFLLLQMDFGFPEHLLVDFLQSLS

Compound: CCC(CC)CC1(C(=O)Nc2ccccc2SC(=O)C(C)C)CCCCC1 [dalcetrapib, thioisobutyric acid S-(2-{[1-(2-ethyl-butyl)-cyclohexanecarbonyl]-amino}-phenyl) ester]
- LDL cholesterol [1]: decrease LDL cholesterol
- plasma HDL cholesterol [1]: increase plasma HDL cholesterol
- CETP activity (CETP [2]): inhibitor of CETP activity
- LDL cholesterol [3]: decrease LDL cholesterol
- plasma HDL cholesterol ([3]; Shinkai et al., Kobayashi et al.): increase plasma HDL cholesterol
- CETP activity (CETP [4]): inhibitor of CETP activity
